Legend:
Format in all cases: in vivo
[1] = system: barnyardgrass (Echinochloa crus-galli); assay: Test A pre-/postemergence; design: key: 0 is no effect; 10 is complete control; conditions: 0 to 10 scale
Procedure: (§1) Seeds of barnyardgrass (Echinochloa crus-galli), crabgrass (Digitaria spp.), morningglory (Ipomoea spp.), and velvetleaf (Abutilon theophrasti) were planted into a sandy loam soil and treated preemergence by soil drench with test chemicals formulated in a non-phytotoxic solvent mixture which includes a surfactant. At the same time, these crop and weed species were also treated postemergence sprayed to runoff, with test chemicals formulated in the same manner. Plants ranged in height from two to eighteen cm and were in the one to two leaf stage for the postemergence treatment. Treated plants and untreated controls were maintained in a greenhouse for approximately eleven days, after which all treated plants were compared to untreated controls and visually evaluated for injury. Plant response ratings, summarized in Table A, are based on a 0 to 10 scale where 0 is no effect and 10 is complete control. A dash (−) response means no test results.

[2] = system: crabgrass (Digitaria spp.); assay: Test A pre-/postemergence; design: key: 0 is no effect; 10 is complete control; conditions: 0 to 10 scale
Procedure: as §1

[3] = system: velvetleaf (Abutilon theophrasti); assay: Test A pre-/postemergence; design: key: 0 is no effect; 10 is complete control; conditions: 0 to 10 scale
Procedure: as §1

[4] = system: morningglory (Ipomoea spp.); assay: Test A pre-/postemergence; design: key: 0 is no effect; 10 is complete control; conditions: 0 to 10 scale
Procedure: as §1

[5] = system: field bindweed (Convolvulus arvensis); assay: Test C; conditions: PREEMERGENCE
[6] = system: surinam grass (Brachiaria decumbens); assay: Test C; conditions: PREEMERGENCE
[7] = system: giant foxtail (Setaria faberii); assay: Test C; design: key: 0 was no effect; 100 was complete control; conditions: PREEMERGENCE
[8] = system: large crabgrass (Digitaria sanguinalis); assay: Test C; design: key: 0 was no effect; 100 was complete control; conditions: PREEMERGENCE
[9] = system: cotton (Gossypium hirsutum); assay: Test C; design: key: 0 was no effect; 100 was complete control; conditions: PREEMERGENCE
[10] = system: barnyardgrass (Echinochloa crus-galli); assay: Test C; design: key: 0 was no effect; 100 was complete control; conditions: PREEMERGENCE
[11] = system: velvetleaf (Abutilon theophrasti); assay: Test C; design: key: 0 was no effect; 100 was complete control; conditions: PREEMERGENCE
[12] = system: common ragweed (Ambrosia elatior); assay: Test C; design: key: 0 was no effect; 100 was complete control; conditions: PREEMERGENCE
corn (Zea mays) = assay: Test C; design: key: 0 was no effect; 100 was complete control; conditions: PREEMERGENCE
[13] = system: lambsquarters (Chenopodium album); assay: Test C; design: key: 0 was no effect; 100 was complete control; conditions: PREEMERGENCE
[14] = system: fall panicum (Panicum dichotomiflorum); assay: Test C; design: key: 0 was no effect; 100 was complete control; conditions: PREEMERGENCE
[15] = PRE SOIL DRENCH, Rate 2000 g/ha
[16] = postemergence SPRAYED TO RUNOFF, Rate 1000 g/ha

Cc1cnc(-n2ccc(C(F)(F)F)n2)nc1C(=O)c1ccc(C(F)(F)F)cc1 [Compound 65]
Plant response rating, Barnyardgrass [1, 15]: 5 | Plant response rating, Barnyardgrass [1, 16]: 4 | Plant response rating, Crabgrass [2, 15]: 8 | Plant response rating, Crabgrass [2, 16]: 5 | Plant response rating, Velvetleaf [3, 15]: 4 | Plant response rating, Velvetleaf [3, 16]: 5 | Plant response rating, Morningglory [4, 15]: 4 | Plant response rating, Morningglory [4, 16]: 10

Cc1cnc(-c2ccc(Cl)cc2)nc1Cn1ccc(C(F)(F)F)n1 [Compound 6]
Plant response rating, Barnyardgrass [1, 15]: 8 | Plant response rating, Barnyardgrass [1, 16]: 8 | Plant response rating, Crabgrass [2, 15]: 9 | Plant response rating, Crabgrass [2, 16]: 9 | Plant response rating, Velvetleaf [3, 15]: 8 | Plant response rating, Velvetleaf [3, 16]: 9 | Plant response rating, Morningglory [4, 15]: 5 | Plant response rating, Morningglory [4, 16]: 6

Cc1cnc(-n2ccc(C(F)(F)F)n2)nc1C(=O)c1cccc(C(F)(F)F)c1 [Compound 59]
Plant response rating, Barnyardgrass [1, 15]: 10 | Plant response rating, Barnyardgrass [1, 16]: 9 | Plant response rating, Crabgrass [2, 15]: 10 | Plant response rating, Crabgrass [2, 16]: 9 | Plant response rating, Velvetleaf [3, 15]: 10 | Plant response rating, Velvetleaf [3, 16]: 9 | Plant response rating, Morningglory [4, 15]: 9 | Plant response rating, Morningglory [4, 16]: 8

Cc1cnc(-n2ccc(C(F)(F)F)n2)nc1C(=O)c1cccc(OC(F)(F)F)c1 [Compound 66]
Plant response rating, Field bindweed ([5]; Rate 35 g/ha): 40 | Plant response rating, Field bindweed ([5]; Rate 70 g/ha): 80 | Plant response rating, Field bindweed ([5]; Rate 140 g/ha): 90 | Plant response rating, Surinam grass ([6]; Rate 35 g/ha): 5 | Plant response rating, Surinam grass ([6]; Rate 70 g/ha): 5 | Plant response rating, Surinam grass ([6]; Rate 140 g/ha): 20 | Plant response rating, Giant foxtail ([7]; Rate 35 g/ha): 0 | Plant response rating, Giant foxtail ([7]; Rate 70 g/ha): 0 | Plant response rating, Giant foxtail ([7]; Rate 140 g/ha): 0 | Plant response rating, Large crabgrass ([8]; Rate 35 g/ha): 80 | Plant response rating, Large crabgrass ([8]; Rate 70 g/ha): 100 | Plant response rating, Large crabgrass ([8]; Rate 140 g/ha): 100 | Plant response rating, Cotton ([9]; Rate 35 g/ha): 0 | Plant response rating, Cotton ([9]; Rate 70 g/ha): 0 | Plant response rating, Cotton ([9]; Rate 140 g/ha): 0 | Plant response rating, Barnyardgrass ([10]; Rate 35 g/ha): 0 | Plant response rating, Barnyardgrass ([10]; Rate 70 g/ha): 5 | Plant response rating, Barnyardgrass ([10]; Rate 140 g/ha): 5 | Plant response rating, Velvetleaf ([11]; Rate 35 g/ha): 0 | Plant response rating, Velvetleaf ([11]; Rate 70 g/ha): 0 | Plant response rating, Velvetleaf ([11]; Rate 140 g/ha): 0 | Plant response rating, Common ragweed ([12]; Rate 35 g/ha): 0 | Plant response rating, Common ragweed ([12]; Rate 70 g/ha): 0 | Plant response rating, Common ragweed ([12]; Rate 140 g/ha): 30 | Plant response rating, Corn (corn (Zea mays); Rate 35 g/ha): 0 | Plant response rating, Corn (corn (Zea mays); Rate 70 g/ha): 0 | Plant response rating, Corn (corn (Zea mays); Rate 140 g/ha): 0 | Plant response rating, Lambsquarters ([13]; Rate 35 g/ha): 0 | Plant response rating, Lambsquarters ([13]; Rate 70 g/ha): 0 | Plant response rating, Lambsquarters ([13]; Rate 140 g/ha): 100 | Plant response rating, Fall panicum ([14]; Rate 35 g/ha): 80 | Plant response rating, Fall panicum ([14]; Rate 70 g/ha): 80 | Plant response rating, Fall panicum ([14]; Rate 140 g/ha): 100

From US6525001B1, “Substituted pyrimidine and pyridine herbicides” (Mid-American Commercialization Corporation, priority 1997, dated 2003)
